Converted amounts (≈) assume the structure as drawn.
Columns and labels:
Assay in all cases: Antibacterial activity, MIC
Format in all cases: cell-based
[1] = system: Staphylococcus aureus ATCC 10537; conditions: ATCC10537, ATCC 10537, agar two-fold dilution, 37° C., 20 hours, read-out: MIC
In short: (§1)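 Values reflect agar dilution testing: Mueller-Hinton medium, two-fold compound series, 2 μl inoculum of 10^7 CFU/ml, 20 h incubation at 37 °C.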

[2] = system: Proteus vulgaris ATCC 6059; conditions: ATCC6059, ATCC 6059, agar two-fold dilution, 37° C., 20 hours, read-out: MIC
In short: as §1

[3] = system: Staphylococcus aureus ATCC 6538p; conditions: ATCC6538P, ATCC 6538p, agar two-fold dilution, 37° C., 20 hours, read-out: MIC
In short: as §1

[4] = system: Acinetobacter calcoaceticus ATCC 15473; conditions: ATCC15473, ATCC 15473, agar two-fold dilution, 37° C., 20 hours, read-out: MIC
In short: as §1

[5] = system: Escherichia coli ATCC 10536; conditions: ATCC10536, agar two-fold dilution, 37° C., 20 hours
In short: as §1

[6] = system: Pseudomonas aeruginosa ATCC 25619; conditions: ATCC25619, ATCC 25619, agar two-fold dilution, 37° C., 20 hours, read-out: MIC
In short: as §1

[7] = system: Providencia rettgeri ATCC 9250; conditions: ATCC9250, agar two-fold dilution, 37° C., 20 hours
In short: as §1

[8] = system: Streptococcus faecalis ATCC 29212; conditions: Enterococcus faecalis, ATCC29212; ATCC 29212; agar two-fold dilution, 37° C., 20 hours; read-out: MIC
In short: as §1

[9] = system: Proteus mirabilis ATCC 25933; conditions: ATCC25933, ATCC 25933, agar two-fold dilution, 37° C., 20 hours, read-out: MIC
In short: as §1

[10] = system: Salmonella typhimurium ATCC 14028; conditions: Salmonella enterica; ATCC 14028; agar two-fold dilution, 37° C., 20 hours; read-out: MIC
In short: as §1

[11] = system: Enterobacter aerogenes ATCC 29751; conditions: Klebsiella aerogenes, ATCC29751; ATCC 29751; agar two-fold dilution, 37° C., 20 hours; read-out: MIC
In short: as §1

[12] = system: Shigella flexneri ATCC 11836; conditions: ATCC11836, agar two-fold dilution, 37° C., 20 hours
In short: as §1

[13] = system: Escherichia coli ATCC 25922; conditions: ATCC25922, agar two-fold dilution, 37° C., 20 hours
In short: as §1

[14] = system: Staphylococcus epidermidis ATCC 12228; conditions: ATCC12228, ATCC 12228, agar two-fold dilution, 37° C., 20 hours, read-out: MIC
In short: as §1

[15] = system: Pseudomonas aeruginosa ATCC 27853; conditions: ATCC27853, ATCC 27853, agar two-fold dilution, 37° C., 20 hours, read-out: MIC
In short: as §1

[16] = system: Enterobacter cloacae ATCC 27508; conditions: ATCC27508, ATCC 27508, agar two-fold dilution, 37° C., 20 hours, read-out: MIC
In short: as §1

[17] = system: Bacillus megaterium ATCC 9885; conditions: Priestia megaterium, ATCC9885; ATCC 9885; agar two-fold dilution, 37° C., 20 hours; read-out: MIC
In short: as §1

[18] = system: Shigella sonnei ATCC 11060; conditions: ATCC11060, ATCC 11060, agar two-fold dilution, 37° C., 20 hours, read-out: MIC
In short: as §1

[19] = system: Pseudomonas aeruginosa ATCC 10145; conditions: ATCC10145, ATCC 10145, agar two-fold dilution, 37° C., 20 hours, read-out: MIC
In short: as §1

[20] = system: Morganella morganii ATCC 8076h; conditions: ATCC8076H, agar two-fold dilution, 37° C., 20 hours
In short: as §1

[21] = system: Serratia marcescens ATCC 27117; conditions: ATCC27117, ATCC 27117, agar two-fold dilution, 37° C., 20 hours, read-out: MIC
In short: as §1

[22] = system: Micrococcus luteus ATCC 9341; conditions: ATCC9341, ATCC 9341, agar two-fold dilution, 37° C., 20 hours, read-out: MIC
In short: as §1

[23] = system: Citrobacter freundii ATCC 8090; conditions: ATCC8090, ATCC 8090, agar two-fold dilution, 37° C., 20 hours, read-out: MIC
In short: as §1

[24] = system: Klebsiella pneumoniae ATCC 10031; conditions: ATCC10031, ATCC 10031, agar two-fold dilution, 37° C., 20 hours, read-out: MIC
In short: as §1

[25] = system: Bacillus cereus ATCC 11778; conditions: ATCC11778, ATCC 11778, agar two-fold dilution, 37° C., 20 hours, read-out: MIC
In short: as §1

Compound | MIC [1] | MIC [2] | MIC [3] | MIC [4] | MIC [5] | MIC [6] | MIC [7] | MIC [8] | MIC [9] | MIC [10] | MIC [11] | MIC [12] | MIC [13] | MIC [14] | MIC [15] | MIC [16] | MIC [17] | MIC [18] | MIC [19] | MIC [20] | also measured
C[n+]1c(N)cc(N)nc1SCC1=C(C(=O)[O-])N2C(=O)C(NC(=O)/C(=N\OC(C)(C)C(=O)O)c3nsc(N)n3)C2SC1 (stereo not shown) [Compound I-26] | 8 µg/mL (≈ 12.8 µM) | 0.13 µg/mL (≈ 0.208 µM) | 8 µg/mL (≈ 12.8 µM) | 4 µg/mL (≈ 6.4 µM) | 0.13 µg/mL (≈ 0.208 µM) | 2 µg/mL (≈ 3.2 µM) | ≤ 0.008 µg/mL | > 128 µg/mL | 0.13 µg/mL (≈ 0.208 µM) | 0.5 µg/mL (≈ 0.8 µM) | 1 µg/mL (≈ 1.6 µM) | 0.063 µg/mL (≈ 0.101 µM) | 0.13 µg/mL (≈ 0.208 µM) | 4 µg/mL (≈ 6.4 µM) | 2 µg/mL (≈ 3.2 µM) | 0.031 µg/mL (≈ 0.0496 µM) | 1 µg/mL (≈ 1.6 µM) | 0.13 µg/mL (≈ 0.208 µM) | 2 µg/mL (≈ 3.2 µM) | ≤ 0.008 µg/mL | MIC [21]: 0.25 µg/mL (≈ 0.4 µM); MIC [22]: 1 µg/mL (≈ 1.6 µM); MIC [23]: 0.13 µg/mL (≈ 0.208 µM); MIC [24]: 0.13 µg/mL (≈ 0.208 µM); MIC [25]: > 128 µg/mL
CC[n+]1c(N)cc(N)nc1SCC1=C(C(=O)[O-])N2C(=O)C(NC(=O)/C(=N\OC(C)(C)C(=O)O)c3nsc(N)n3)C2SC1 (stereo not shown) [Compound I-27] | 4 µg/mL (≈ 6.26 µM) | 0.13 µg/mL (≈ 0.204 µM) | 8 µg/mL (≈ 12.5 µM) | 8 µg/mL (≈ 12.5 µM) | 0.13 µg/mL (≈ 0.204 µM) | 2 µg/mL (≈ 3.13 µM) | ≤ 0.008 µg/mL | > 128 µg/mL | 0.13 µg/mL (≈ 0.204 µM) | 0.5 µg/mL (≈ 0.783 µM) | 2 µg/mL (≈ 3.13 µM) | 0.25 µg/mL (≈ 0.391 µM) | 0.13 µg/mL (≈ 0.204 µM) | 4 µg/mL (≈ 6.26 µM) | 2 µg/mL (≈ 3.13 µM) | 0.063 µg/mL (≈ 0.0986 µM) | 1 µg/mL (≈ 1.57 µM) | 0.13 µg/mL (≈ 0.204 µM) | 4 µg/mL (≈ 6.26 µM) | ≤ 0.008 µg/mL | MIC [21]: 0.25 µg/mL (≈ 0.391 µM); MIC [22]: 0.5 µg/mL (≈ 0.783 µM); MIC [23]: 0.25 µg/mL (≈ 0.391 µM); MIC [24]: 0.063 µg/mL (≈ 0.0986 µM); MIC [25]: > 128 µg/mL
CCC[n+]1c(N)cc(N)nc1SCC1=C(C(=O)[O-])N2C(=O)C(NC(=O)/C(=N\OC(C)(C)C(=O)O)c3nsc(N)n3)C2SC1 (stereo not shown) [Compound I-28] | 4 µg/mL (≈ 6.13 µM) | 0.25 µg/mL (≈ 0.383 µM) | 8 µg/mL (≈ 12.3 µM) | 8 µg/mL (≈ 12.3 µM) | 0.13 µg/mL (≈ 0.199 µM) | 2 µg/mL (≈ 3.06 µM) | ≤ 0.008 µg/mL | > 128 µg/mL | 0.13 µg/mL (≈ 0.199 µM) | 0.5 µg/mL (≈ 0.766 µM) | 4 µg/mL (≈ 6.13 µM) | 0.063 µg/mL (≈ 0.0965 µM) | 0.13 µg/mL (≈ 0.199 µM) | 4 µg/mL (≈ 6.13 µM) | 2 µg/mL (≈ 3.06 µM) | 0.031 µg/mL (≈ 0.0475 µM) | 0.25 µg/mL (≈ 0.383 µM) | 0.13 µg/mL (≈ 0.199 µM) | 4 µg/mL (≈ 6.13 µM) | ≤ 0.008 µg/mL | MIC [21]: 0.25 µg/mL (≈ 0.383 µM); MIC [22]: 0.5 µg/mL (≈ 0.766 µM); MIC [23]: 0.13 µg/mL (≈ 0.199 µM); MIC [24]: 0.13 µg/mL (≈ 0.199 µM); MIC [25]: 128 µg/mL (≈ 196 µM)
CCCC[n+]1c(N)cc(N)nc1SCC1=C(C(=O)[O-])N2C(=O)C(NC(=O)/C(=N\OC(C)(C)C(=O)O)c3nsc(N)n3)C2SC1 (stereo not shown) [Compound I-29] | 4 µg/mL (≈ 6 µM) | 1 µg/mL (≈ 1.5 µM) | 8 µg/mL (≈ 12 µM) | 32 µg/mL (≈ 48 µM) | 0.25 µg/mL (≈ 0.375 µM) | 4 µg/mL (≈ 6 µM) | ≤ 0.008 µg/mL | > 128 µg/mL | 1 µg/mL (≈ 1.5 µM) | 0.5 µg/mL (≈ 0.75 µM) | 1 µg/mL (≈ 1.5 µM) | 0.13 µg/mL (≈ 0.195 µM) | 0.25 µg/mL (≈ 0.375 µM) | 8 µg/mL (≈ 12 µM) | 2 µg/mL (≈ 3 µM) | 0.063 µg/mL (≈ 0.0945 µM) | 0.25 µg/mL (≈ 0.375 µM) | 0.5 µg/mL (≈ 0.75 µM) | 8 µg/mL (≈ 12 µM) | 0.016 µg/mL (≈ 0.024 µM) | MIC [21]: 0.5 µg/mL (≈ 0.75 µM); MIC [22]: 0.5 µg/mL (≈ 0.75 µM); MIC [23]: 0.25 µg/mL (≈ 0.375 µM); MIC [24]: 0.13 µg/mL (≈ 0.195 µM); MIC [25]: 128 µg/mL (≈ 192 µM)
